Experimental data as given in US8629112B2, “Template-fixed peptidomimetics with CXCR7 modulating activity” (priority 2010, dated 2014).
Like-named read-outs stand apart in the source and are kept apart here. Square brackets hold non-standard residues; d marks the D form. Peptide text beside a SMILES is read from it. * marks the point of attachment. Oic = O=C(O)[C@@H]1C[C@@H]2CCCC[C@@H]2N1; 1Nal = N[C@@H](Cc1cccc2ccccc12)C(=O)O; 2Nal = N[C@@H](Cc1ccc2ccccc2c1)C(=O)O; Tiq1c(1S) = O=C(O)[C@H]1NCCc2ccccc21; His(π-Me) = Cn1cncc1C[C@H](N)C(=O)O; cisHyp = O=C(O)[C@@H]1C[C@H](O)CN1; Tic = O=C(O)[C@@H]1Cc2ccccc2CN1; dTic = O=C(O)[C@H]1Cc2ccccc2CN1; dOrn = NCCC[C@@H](N)C(=O)O; Orn = NCCC[C@H](N)C(=O)O; Aze = O=C(O)[C@@H]1CCN1; Bn = c1ccc(C*)cc1

Target: T1, CXCR7 (Homo sapiens, UniProt P25106)
T1 construct: host or cells: CHO (PathHunter CHO-CXCR7 β-arrestin cells)
Test: CXCR7 β-arrestin recruitment assay (PathHunter CHO-CXCR7, agonistic assay)
Format: cell-based
Experimental: Lyophilized peptides were weighed on a Microbalance (Mettler MX5) and dissolved in DMSO to a final concentration of 10 mM unless otherwise stated. Stock solutions were kept at +4° C., and protected from light.
2.2 CXCR7 β-Arrestin Recruitment Assay
The PathHunter CHO-CXCR7 (DiscoverX) assay was performed according to the manufacturer's protocol. In brief, CHO CXCR7 β-arrestin cells were seeded at a density of 5000 cells per well in 40 μl of F12 medium in a 96-half volume well black culture plate and incubated overnight at 37° C. in a humidified atmosphere with 5% CO2. The next day, serial dilutions of PEM compounds have been prepared in DMSO and subsequently diluted in HBSS buffer containing 0.1% BSA.
For agonistic assay, 10 μl of compound solution or a solution of stromal cell-derived factor-1 (SDF-1) as positive control was added to the cells with a final DMSO concentration of 1% (v/v). The plate was incubated for 90 min at 37° C. in 5% CO2 incubator with gentle shaking (300 rpm) before addition of 40 ul of detection reagent per well. Reaction was developed 90 min at room temperature in the dark with shaking, and chemiluminescence was measured with a Topcount (Perkin Elmer) luminescence counter.

[1] = CHO CXCR7 β-arrestin cells, agonistic assay, 90 min at 37° C., chemiluminescence, read-out: β-Arrestin EC50

T1 sequence (P25106 whole entry): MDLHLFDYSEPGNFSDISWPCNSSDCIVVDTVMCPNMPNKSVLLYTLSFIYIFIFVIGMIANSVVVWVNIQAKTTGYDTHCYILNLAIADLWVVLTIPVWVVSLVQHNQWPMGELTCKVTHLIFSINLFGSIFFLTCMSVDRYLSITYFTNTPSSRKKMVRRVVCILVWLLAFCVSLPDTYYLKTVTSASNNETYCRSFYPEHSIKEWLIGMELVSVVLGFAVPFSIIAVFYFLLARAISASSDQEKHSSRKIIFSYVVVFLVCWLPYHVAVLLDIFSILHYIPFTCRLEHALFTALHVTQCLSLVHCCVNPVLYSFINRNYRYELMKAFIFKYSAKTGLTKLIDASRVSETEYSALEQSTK

EC50 [1] | Compound | EC50
163 ± 40.9 nM | C[C@@H]1NC(=O)[C@@H]2Cc3ccccc3CN2C(=O)[C@H]2CCCN2C(=O)[C@H](CCCNC(=N)N)NC(=O)[C@H](Cc2c[nH]c3ccccc23)NC(=O)[C@@H](Cc2ccccc2)NC1=O [Ex. 1, cyclo(-Ala-^DPhe-Trp-Arg-^DPro-Tic-)] (cyclo(A[dF]WR[dP][Tic])) | –
22.5 ± 13.7 nM | N=C(N)NCCC[C@@H]1NC(=O)[C@H](Cc2c[nH]c3ccccc23)NC(=O)[C@@H](Cc2ccccc2)NC(=O)[C@H](Cc2ccccc2)NC(=O)[C@@H]2Cc3ccccc3CN2C(=O)[C@H]2CCCN2C1=O [Ex. 2, cyclo(-Phe-^DPhe-Trp-Arg-^DPro-Tic-)] (cyclo(F[dF]WR[dP][Tic])) | –
32.5 ± 3.9 nM | Cn1cncc1C[C@@H]1NC(=O)[C@@H]2Cc3ccccc3CN2C(=O)[C@H]2CCCN2C(=O)[C@H](CCCNC(=N)N)NC(=O)[C@H](Cc2c[nH]c3ccccc23)NC(=O)[C@@H](Cc2ccccc2)NC1=O [Ex. 4, cyclo(-His(Me)-^DPhe-Trp-Arg-^DPro-Tic-)] (cyclo([His(π-Me)][dF]WR[dP][Tic])) | –
64.9 ± 113 nM | N=C(N)NCCC[C@@H]1NC(=O)[C@H](Cc2c[nH]c3ccccc23)NC(=O)[C@@H](Cc2c[nH]c3ccccc23)NC(=O)[C@H](Cc2c[nH]c3ccccc23)NC(=O)[C@@H]2Cc3ccccc3CN2C(=O)[C@H]2CCCN2C1=O [Ex. 10, cyclo(-Trp-^DTrp-Trp-Arg-^DPro-Tic-)] (cyclo(R[dP][Tic]W[dW]W)) | –
18.3 ± 17.6 nM | O=C1N[C@@H](Cc2c[nH]cn2)C(=O)N2CCC[C@@H]2C(=O)N2Cc3ccccc3C[C@H]2C(=O)N[C@@H](Cc2c[nH]c3ccccc23)C(=O)N[C@H](Cc2ccccc2)C(=O)N[C@H]1Cc1c[nH]c2ccccc12 [Ex. 23, cyclo(-Trp-^DPhe-Trp-His-^DPro-Tic-)] (cyclo(H[dP][Tic]W[dF]W)) | –
0.4 nM | N=C(N)NCCC[C@@H]1NC(=O)[C@H](Cc2c[nH]c3ccccc23)NC(=O)[C@@H](Cc2ccccc2)NC(=O)[C@H](Cc2c[nH]c3ccccc23)NC(=O)[C@@H]2c3ccccc3CCN2C(=O)[C@H]2CCCN2C1=O [Ex. 25, cyclo(-Trp-^DPhe-Trp-Arg-^DPro-Tiq-)] (cyclo(R[dP][Tiq1c(1S)]W[dF]W)) | –
0.8 ± 0.5 nM | N=C(N)NCCC[C@@H]1NC(=O)[C@H](Cc2c[nH]c3ccccc23)NC(=O)[C@@H](Cc2ccccc2)NC(=O)[C@H](Cc2c[nH]c3ccccc23)NC(=O)[C@@H]2C[C@@H]3CCCC[C@@H]3N2C(=O)[C@H]2CCCN2C1=O [Ex. 26, cyclo(-Trp-^DPhe-Trp-Arg-^DPro-Oic-)] (cyclo([Oic]W[dF]WR[dP])) | –
1.7 ± 1.1 nM | N=C(N)NCCC[C@@H]1NC(=O)[C@H](Cc2c[nH]c3ccccc23)NC(=O)[C@@H](Cc2ccccc2)NC(=O)[C@H](Cc2c[nH]c3ccccc23)NC(=O)[C@@H]2C[C@H](OCc3ccccc3)CN2C(=O)[C@H]2CCCN2C1=O [Ex. 27, cyclo(-Trp-^DPhe-Trp-Arg-^DPro-(4S)-Hyp(Bn)-)] (cyclo(R[dP][cisHyp](Bn)W[dF]W)) | –
83.6 ± 22.7 nM | N=C(N)NCCC[C@@H]1NC(=O)[C@H](Cc2c[nH]c3ccccc23)NC(=O)[C@@H](Cc2ccccc2)NC(=O)[C@H](Cc2c[nH]c3ccccc23)NC(=O)[C@@H]2CCCN2C(=O)[C@H]2Cc3ccccc3CN2C1=O [Ex. 40, cyclo(-Trp-^DPhe-Trp-Arg-^DTic-Pro-)] (cyclo(PW[dF]WR[dTic])) | –
85.7 ± 76.6 nM | CC[C@H](C)[C@@H]1NC(=O)[C@@H](Cc2c[nH]cn2)NC(=O)[C@H](Cc2cccc3ccccc23)NC(=O)[C@@H]2CCN2C(=O)[C@H]2CCCN2C(=O)[C@H](CCCNC(=N)N)NC1=O [Ex. 42, cyclo(-1Nal-^DHis-Ile-Arg-^DPro-Azt-)] (cyclo([1Nal][dH]IR[dP][Aze])) | –
32.1 ± 3.9 nM | N=C(N)NCCC[C@@H]1NC(=O)[C@H](Cc2c[nH]c3ccccc23)NC(=O)[C@@H](Cc2ccccc2)NC(=O)[C@H](Cc2c[nH]cn2)NC(=O)[C@@H]2Cc3ccccc3CN2C(=O)[C@H]2CCCN2C1=O [compound 3, cyclo(-His-^DPhe-Trp-Arg-^DPro-Tic-)] (cyclo(H[dF]WR[dP][Tic])) | –
– | N=C(N)NCCC[C@@H]1NC(=O)[C@H](Cc2c[nH]c3ccccc23)NC(=O)[C@@H](Cc2ccccc2)NC(=O)[C@H](Cc2ccc(O)cc2)NC(=O)[C@@H]2Cc3ccccc3CN2C(=O)[C@H]2CCCN2C1=O [compound 5, cyclo(-Tyr-^DPhe-Trp-Arg-^DPro-Tic-)] (cyclo(R[dP][Tic]Y[dF]W)) | 11.5 ± 9 nM
12.8 ± 4.5 nM | N=C(N)NCCC[C@@H]1NC(=O)[C@@H]2Cc3ccccc3CN2C(=O)[C@H]2CCCN2C(=O)[C@H](CCCNC(=N)N)NC(=O)[C@H](Cc2c[nH]c3ccccc23)NC(=O)[C@@H](Cc2ccccc2)NC1=O [compound 6, cyclo(-Arg-^DPhe-Trp-Arg-^DPro-Tic-)] (cyclo(R[dF]WR[dP][Tic])) | –
61.6 ± 1.6 nM | N=C(N)NCCC[C@@H]1NC(=O)[C@H](Cc2c[nH]c3ccccc23)NC(=O)[C@@H](Cc2ccccc2)NC(=O)[C@H](Cc2cccc3ccccc23)NC(=O)[C@@H]2Cc3ccccc3CN2C(=O)[C@H]2CCCN2C1=O [compound 7, cyclo(-1Nal-^DPhe-Trp-Arg-^DPro-Tic-)] (cyclo([1Nal][dF]WR[dP][Tic])) | –
8.9 ± 5.8 nM | N=C(N)NCCC[C@@H]1NC(=O)[C@H](Cc2c[nH]c3ccccc23)NC(=O)[C@@H](Cc2ccccc2)NC(=O)[C@H](Cc2ccc3ccccc3c2)NC(=O)[C@@H]2Cc3ccccc3CN2C(=O)[C@H]2CCCN2C1=O [compound 8, cyclo(-2Nal-^DPhe-Trp-Arg-^DPro-Tic-)] (cyclo([2Nal][dF]WR[dP][Tic])) | –
4.8 ± 4.4 nM | N=C(N)NCCC[C@@H]1NC(=O)[C@H](Cc2c[nH]c3ccccc23)NC(=O)[C@@H](Cc2ccccc2)NC(=O)[C@H](Cc2c[nH]c3ccccc23)NC(=O)[C@@H]2Cc3ccccc3CN2C(=O)[C@H]2CCCN2C1=O [compound 9, cyclo(-Trp-^DPhe-Trp-Arg-^DPro-Tic-)] (cyclo(R[dP][Tic]W[dF]W)) | –
204 ± 8.1 nM | N=C(N)NCCC[C@@H]1NC(=O)[C@H](Cc2c[nH]c3ccccc23)NC(=O)[C@@H](Cc2c[nH]cn2)NC(=O)[C@H](Cc2c[nH]c3ccccc23)NC(=O)[C@@H]2Cc3ccccc3CN2C(=O)[C@H]2CCCN2C1=O [compound 11, cyclo(-Trp-^DHis-Trp-Arg-^DPro-Tic-)] (cyclo(R[dP][Tic]W[dH]W)) | –
128 ± 32.5 nM | N=C(N)NCCC[C@@H]1NC(=O)[C@H](Cc2c[nH]c3ccccc23)NC(=O)[C@@H](CCCNC(=N)N)NC(=O)[C@H](Cc2c[nH]c3ccccc23)NC(=O)[C@@H]2Cc3ccccc3CN2C(=O)[C@H]2CCCN2C1=O [compound 13, cyclo(-Trp-^DArg-Trp-Arg-^DPro-Tic-)] (cyclo(R[dP][Tic]W[dR]W)) | –
111 ± 75.4 nM | N=C(N)NCCC[C@@H]1NC(=O)[C@H](Cc2c[nH]c3ccccc23)NC(=O)[C@@H](CCCN)NC(=O)[C@H](Cc2c[nH]c3ccccc23)NC(=O)[C@@H]2Cc3ccccc3CN2C(=O)[C@H]2CCCN2C1=O [compound 14, cyclo(-Trp-^DOrn-Trp-Arg-^DPro-Tic-)] (cyclo(R[dP][Tic]W[dOrn]W)) | –
75.7 ± 41.5 nM | N=C(N)NCCC[C@@H]1NC(=O)[C@H](Cc2ccccc2)NC(=O)[C@@H](Cc2ccccc2)NC(=O)[C@H](Cc2c[nH]c3ccccc23)NC(=O)[C@@H]2Cc3ccccc3CN2C(=O)[C@H]2CCCN2C1=O [compound 15, cyclo(-Trp-^DPhe-Phe-Arg-^DPro-Tic-)] (cyclo(FR[dP][Tic]W[dF])) | –
326 ± 99.8 nM | N=C(N)NCCC[C@@H]1NC(=O)[C@H](Cc2ccc(O)cc2)NC(=O)[C@@H](Cc2ccccc2)NC(=O)[C@H](Cc2c[nH]c3ccccc23)NC(=O)[C@@H]2Cc3ccccc3CN2C(=O)[C@H]2CCCN2C1=O [compound 16, cyclo(-Trp-^DPhe-Tyr-Arg-^DPro-Tic-)] (cyclo(R[dP][Tic]W[dF]Y)) | –
16.9 ± 7.3 nM | N=C(N)NCCC[C@@H]1NC(=O)[C@H](Cc2ccc3ccccc3c2)NC(=O)[C@@H](Cc2ccccc2)NC(=O)[C@H](Cc2c[nH]c3ccccc23)NC(=O)[C@@H]2Cc3ccccc3CN2C(=O)[C@H]2CCCN2C1=O [compound 17, cyclo(-Trp-^DPhe-2Nal-Arg-^DPro-Tic-)] (cyclo([2Nal]R[dP][Tic]W[dF])) | –
148 ± 96.8 nM | CC[C@H](C)[C@@H]1NC(=O)[C@@H](Cc2ccccc2)NC(=O)[C@H](Cc2c[nH]c3ccccc23)NC(=O)[C@@H]2Cc3ccccc3CN2C(=O)[C@H]2CCCN2C(=O)[C@H](CCCNC(=N)N)NC1=O [compound 18, cyclo(-Trp-^DPhe-Ile-Arg-^DPro-Tic-)] (cyclo(IR[dP][Tic]W[dF])) | –
178 ± 102 nM | N=C(N)NCCC[C@@H]1NC(=O)[C@@H](Cc2ccccc2)NC(=O)[C@H](Cc2c[nH]c3ccccc23)NC(=O)[C@@H]2Cc3ccccc3CN2C(=O)[C@H]2CCCN2C(=O)[C@H](CCCNC(=N)N)NC1=O [compound 19, cyclo(-Trp-^DPhe-Arg-Arg-^DPro-Tic-)] (cyclo(RR[dP][Tic]W[dF])) | –
16.5 ± 8 nM | NCCCC[C@@H]1NC(=O)[C@H](Cc2c[nH]c3ccccc23)NC(=O)[C@@H](Cc2ccccc2)NC(=O)[C@H](Cc2c[nH]c3ccccc23)NC(=O)[C@@H]2Cc3ccccc3CN2C(=O)[C@H]2CCCN2C1=O [compound 20, cyclo(-Trp-^DPhe-Trp-Lys-^DPro-Tic-)] (cyclo(K[dP][Tic]W[dF]W)) | –
12.1 nM | NCCC[C@@H]1NC(=O)[C@H](Cc2c[nH]c3ccccc23)NC(=O)[C@@H](Cc2ccccc2)NC(=O)[C@H](Cc2c[nH]c3ccccc23)NC(=O)[C@@H]2Cc3ccccc3CN2C(=O)[C@H]2CCCN2C1=O [compound 21, cyclo(-Trp-^DPhe-Trp-Orn-^DPro-Tic-)] (cyclo([Orn][dP][Tic]W[dF]W)) | –
